Counter-ions that a name gives are not always drawn. Like-named read-outs stand apart in the source and are kept apart here.
What was measured:
FGFR3 = FGFR3 (Homo sapiens (Human), UniProt P22607); assay: FGFR3 in vitro kinase inhibitory activity assay (TRF, biotinylated Flt3 substrate); type: biochemical
Method: Enzymes (from Upstate) were prepared at 2× final concentration in 1× kinase assay buffer (as described below). Enzymes were then incubated with test compounds, biotinylated Flt3 substrate (biotin—DNEYFYV) (Cell Signalling Technology Inc.) and ATP. The reaction was allowed to proceed for 3 hours (FGFR3) or 2.5 hrs (PDGFR-beta) at room temperature on a plate shaker at 900 rpm before being stopped with 20 μl of 35 mM EDTA, pH 8 (FGFR3) or 55 mM EDTA, pH 8 (PDGFR-beta). […] The plate was then read on a Packard Fusion plate reader in TRF mode.
Kinase Assay buffers were:
A: 50 mM HEPES pH 7.5, 6 mM MnCl2, 1 mM DTT, 0.1% TritonX-100

LP-1 cell line = assay: Cell-based pERK ELISA method, LP-1 cells; settings: Homo sapiens
Method: LP-1 or JIM-1 multiple myeloma cells were seeded in 96 well plates at 1×10^6 cells/ml in 200 ul per well in serum free media. […] Cells were incubated for 16 h at 37° C. prior to the addition of a test compound for 30 minutes. Test compounds were administered at a 0.1% final DMSO concentration. […] ELISA plates and standards were prepared according o the standard DuoSet protocols and the relative amounts of pERK to total ERK in each sample calculated according to the standard curve.
In particular, compounds of the invention were tested against the LP-1 cell line (DSMZ no.: ACC 41) derived from human multiple myeloma.

[1] = read-out: IC50 less than 1 μM or at least 50% inhibition of the FGFR3 activity at a concentration of 1 μM
[2] = LP-1, read-out: LP-1 pERK ELISA (μM)

FGFR3, sequence (P22607 23-806): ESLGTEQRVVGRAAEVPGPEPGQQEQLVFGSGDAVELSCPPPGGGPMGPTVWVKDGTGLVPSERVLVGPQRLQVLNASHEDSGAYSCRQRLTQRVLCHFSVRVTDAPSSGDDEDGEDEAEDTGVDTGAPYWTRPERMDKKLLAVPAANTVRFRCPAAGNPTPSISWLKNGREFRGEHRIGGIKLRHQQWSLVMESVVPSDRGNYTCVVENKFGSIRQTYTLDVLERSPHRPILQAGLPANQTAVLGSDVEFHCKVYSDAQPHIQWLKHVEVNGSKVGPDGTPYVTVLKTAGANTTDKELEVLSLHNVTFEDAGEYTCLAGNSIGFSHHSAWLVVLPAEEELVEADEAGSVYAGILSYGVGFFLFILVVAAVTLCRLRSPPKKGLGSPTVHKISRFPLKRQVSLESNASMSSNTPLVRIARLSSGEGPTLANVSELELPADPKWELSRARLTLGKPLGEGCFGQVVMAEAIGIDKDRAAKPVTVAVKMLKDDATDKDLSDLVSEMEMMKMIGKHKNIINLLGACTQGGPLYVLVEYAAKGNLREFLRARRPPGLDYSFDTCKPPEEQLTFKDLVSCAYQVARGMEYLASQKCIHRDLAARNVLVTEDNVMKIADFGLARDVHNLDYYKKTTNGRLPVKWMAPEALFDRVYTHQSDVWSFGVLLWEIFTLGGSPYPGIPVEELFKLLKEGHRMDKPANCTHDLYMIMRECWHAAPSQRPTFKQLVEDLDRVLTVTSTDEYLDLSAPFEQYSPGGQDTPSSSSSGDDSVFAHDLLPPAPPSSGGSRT

| Structure (SMILES) | IC50 (FGFR3; [1]) [nM] | IC50 (LP-1 cell line; [2]) [µM] | further results |
| --- | --- | --- | --- |
| Fc1ccc(-c2ccn3c(-c4ccc5[nH]ccc5c4)cnc3c2)cc1 [Example 70, 7-(4-Fluoro-phenyl)-3-(1H-indol-5-yl)-imidazo[1,2-a]pyridine formate salt] | < 1000 |  |  |
| COc1ccc(-c2ccc3ncc(-c4cccc(NC(C)=O)c4)n3c2)cc1 [Example 100, N-{3-[6-(4-Methoxy-phenyl)-imidazo[1,2-a]pyridin-3-yl]-phenyl}-acetamide formate salt] | < 1000 |  |  |
| COc1cncc(-c2ccc3ncc(-c4cccc(NC(C)=O)c4)n3c2)c1 [Example 101, N-{3-[6-(5-Methoxy-pyridin-3-yl)-imidazo[1,2-a]pyridin-3-yl]-phenyl}-acetamide] | < 1000 |  |  |

Now from value to compound, other results behind:

| IC50 (FGFR3; [1]) [nM] | IC50 (LP-1 cell line; [2]) [µM] | Structure (SMILES) | further results |
| --- | --- | --- | --- |
|  | 0.0084 | Cc1c(-c2ccn3c(-c4cccc(NC(=O)NCC(F)(F)F)c4)cnc3c2)ncn1C [Example 374, 1-{3-[7-(1,5-Dimethyl-1H-imidazol-4-yl)-imidazo[1,2-a]pyridin-3-yl]-phenyl}-3-(2,2,2-trifluoro-ethyl)-urea] | inhibition at 0.001 µM (FGFR3; % inhibition at 0.001 μM, read-out: FGFR3 IC50 or % inhibition): 64% |
|  | 0.065 | CC#Cc1ccn2c(-c3cccc(NC(=O)NCC(F)(F)F)c3)cnc2c1 [Example 396, 1-[3-(7-Prop-1-ynyl-imidazo[1,2-a]pyridin-3-yl)-phenyl]-3-(2,2,2-trifluoro-ethyl)-urea] |  |
|  | 0.022 | Cc1nsc(-c2ccn3c(-c4cccc(NC(=O)NCC(F)(F)F)c4)cnc3c2)n1 [Example 399, 1-{3-[7-(3-Methyl-[1,2,4]thiadiazol-5-yl)-imidazo[1,2-a]pyridin-3-yl]-phenyl}-3-(2,2,2-trifluoro-ethyl)-urea] |  |
| < 1000 |  | Cc1nc(C)n(-c2ccn3c(-c4cccc(NC(=O)NCC(F)(F)F)c4)cnc3c2)n1 [Example 414, 1-{3-[7-(3,5-Dimethyl-[1,2,4]triazol-1-yl)-imidazo[1,2-a]pyridin-3-yl]-phenyl}-3-(2,2,2-trifluoro-ethyl)-urea] | IC50 (LP-1 cell line; LP-1, read-out: IC50 less than 1 μM or at least 50% inhibition at a concentration of 1 μM, LP-1 pERK ELISA): < 1 µM; IC50 (FGFR3; read-out: IC50 less than 10 μM or at least 50% inhibition of the FGFR3 activity at a concentration of 10 μM): < 10000 nM |

Source: patent US8895745B2, “Bicyclic heterocyclic compounds as FGFR inhibitors” (Astex Therapeutics Limited, priority 2006, dated 2014)
